Values of other authors as cited in patent US6733793B2, “Oral composition with insulin-like activities and methods of use” (MetaProteomics, LLC, priority 2002, dated 2004).

What was measured:
[1] = rats, inhaled
[2] = tested on: fruit fly
[3] = tested on: bovine papilloma virus DNA-tranfected C3H/10T1/2 cells; conditions: in vitro, bovine papilloma virus DNA-transfected C3H/10T1/2 cells

O=S(=O)([O-])[O-].[O]=[V+2] [Vanadyl sulfate]
Pulmonary inflammation [1]: induce pulmonary inflammation
Chromosomal damage and mitotic recombination [2]: induce chromosomal damage and mitotic recombination
Tumor promotion activity [3]: possess tumor promotion activity
